The record followed here is US7700601B2, “Substituted indazoles of formula 1.0 that are kinase inhibitors” (Schering Corporation, priority 2006, dated 2010).

Where “and” joins values, the source holds several entries; their conditions need not be identical. Equal entries are not always repeated.

The term IC50 denotes the concentration that inhibits the measured activity by half.

For the first assay, the target named is T1, Akt1 (Homo sapiens, UniProt P31749).
T1 construct: (His)6 (N); made in house; host or cells: Sf9 insect cells (baculovirus, pBlueBacHis2B)
T1 sequence (P31749 whole entry): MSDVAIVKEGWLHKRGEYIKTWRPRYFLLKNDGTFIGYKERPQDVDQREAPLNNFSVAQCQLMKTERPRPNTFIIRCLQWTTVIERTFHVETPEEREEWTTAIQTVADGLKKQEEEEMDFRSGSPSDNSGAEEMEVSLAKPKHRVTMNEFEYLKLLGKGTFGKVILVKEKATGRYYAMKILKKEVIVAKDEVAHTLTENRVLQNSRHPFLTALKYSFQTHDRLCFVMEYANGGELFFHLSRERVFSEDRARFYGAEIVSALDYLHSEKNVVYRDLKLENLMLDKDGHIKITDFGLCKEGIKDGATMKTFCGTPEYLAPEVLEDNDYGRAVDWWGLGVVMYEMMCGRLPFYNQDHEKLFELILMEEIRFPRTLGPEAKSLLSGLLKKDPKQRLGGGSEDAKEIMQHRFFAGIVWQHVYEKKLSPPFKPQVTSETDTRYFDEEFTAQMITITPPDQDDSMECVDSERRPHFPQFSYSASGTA
In words: Akt1 kinase assay (33P phosphorylation of biotinylated Gsk3-derived peptide, streptavidin Flash plates). Type of assay: biochemical. The settings on record: Table 2; active recombinant Akt1. The text has this: The assay described below measures the phosphorylation of a biotinylated peptide by active recombinant Akt1 and other kinase isoforms. The biotinylated peptide contains a consensus sequence derived from Akt substrate Gsk3 (Glycogen synthase kinase 3). The ^33P-labeled peptide substrate was captured by streptavidin-coated Flash plates.
Active recombinant Akt1 was expressed in Sf9 insect cells and purified as described by Kumar et al., Biochim. Biophys. Acta. Jun. 15, 2001, 1526(3), 257-268. Biotinylated peptide of the sequence Bio-ahx-RPRAASF was purchased from Syn Pep (Dublin, Calif., USA).
Human Akt1 cDNA was amplified from a marathon-ready human lung cDNA library (Clonetech) using nested oligo primers as described below. The first round of amplification was carried out using the following primers; Akt1F1 ([…]) (SEQ ID NO: 1 and Akt1R1 (TCCATC […]) (SEQ ID NO: 2) and for the second round amplification, the primers of the following sequence were used; Akt1F2 (GGATCCTCGG […]) (SEQ ID NO: 3) and AKT1R2 (GGTACCATCGTC […]) (SEQ ID NO: 4). The PCR product was subcloned into pCRScript plasmid as a BamHI/KpnI fragment and the sequence of the cDNA was confirmed by DNA sequencing. This plasmid was used as a template for reamplification of Akt1 using appropriate primers for subcloning into pBlueBaHis2B into BamH1/EcoRI sites to generate an in frame fusion to (His)6 tag and an anti-Xpress antibody epitope tag at the N-terminus. This construct was sequenced to verify the junction sequences and used for generating a recombinant baculovirus. Growth of the recombinant virus, amplification and determination of viral titer were carried out according to the instructions from the manufacturer (InVitrogen, Calif.).
Viral stocks were used to infect large scale Sf9 cells at a multiplicity of infection (MOI) of 2.5. Cells were maintained at 27° C. for 60 h and okadaic acid was added to the cultures to a concentration of 50 nM. Cells were harvested 4 h hours later by centrifugation at 1200 rpm for 30 min followed by freezing at −80° C. until further use. All purification steps were carried out at 4° C. Whole cell pellets were suspended in buffer A (20 mM sodium phosphate buffer pH 7.8, 500 mM NaCl, 1 mM sodium vanadate, 5 mM sodium fluoride, 40 mM β-glycerophosphate, 10 mM imidazole and protease inhibitor cocktail) and lysed using a microfluidizer. The cell extract was centrifuged at 16,000×g for 10 min to remove the debris and directly loaded onto Ni-NTA Superflow resin using a FPLC pump operated at 1 ml/min. The column was washed once with buffer A, once with wash buffer B (20 mM sodium phosphate pH 6.0, 1 mM sodium vanadate, 5 mM sodium fluoride and protease cocktail) and once with wash buffer B containing 0.05% Tween-20 followed by washing with buffer A until OD260 returned to basal level. Proteins were eluted with buffer A containing 200 mM imidazole. Fractions were analyzed by electrophoresis on 10% denaturing polyacrylamide gels and fractions containing 85% pure protein band at 60 KDa were pooled and dialyzed against buffer C (20 mM Tris-HCl pH 7.5, 0.5 mM EDTA, 2 mM DTT, 145 mM NaCl, 0.1 mM sodium vanadate, 5 mM sodium fluoride, 10 mM β-glycerophosphate and 20% glycerol). Purified protein was stored as aliquots at −80° C. Protein concentrations were determined using BCA protein assay reagent A (Catalog #23228). To examine the identity of the proteins, 2 μg of purified protein was electrophoresed on SDS-polyacrylamide gels and stained with coomassie blue dye or transferred to nitrocellulose membrane and probed with anti-Akt and anti-phospho-specific Akt antibodies using enhanced chemiluminescence (ECL) reagent according to the protocol described by the manufacturer (Amersham).
The kinase assay was performed in 96 well plates at room temperature. Assay solutions and plates were preincubated at room temperature for 5 min. […]
For the compound `Cc1n[nH]c2ccc(-c3cnc(NCc4ccccc4)c(NCCN)n3)cc12`, the IC50 stood at 79 nM.
As for `Cc1n[nH]c2ccc(-c3cnc(N)c(NCCN)n3)cc12`, the IC50 came out at 74 nM.
As to `Cc1n[nH]c2ccc(-c3cncc(N4CCN[C@@H](Cc5ccccc5)C4)n3)cc12` [Example 2, 2-[(S)-3-benzylpiperazinyl]-6-[3-methyl-1H-indazol-5-yl]pyrazine], the IC50 amounted to 1 nM.
As to `Cc1n[nH]c2ccc(-c3cnc(NCc4ccccc4)c(N4CCNCC4)n3)cc12` [drawing 101], the IC50 is 46 nM.
`Cc1n[nH]c2ccc(-c3cnc(NCc4cccc(F)c4)c(N4CCNCC4)n3)cc12` [drawing 103]: the IC50 turned out to be 44 nM.
For `Cc1n[nH]c2ccc(-c3cnc(NCc4ccccc4)c(N4CCN[C@@H](Cc5ccccc5)C4)n3)cc12` [drawing 104], the IC50 worked out at 76 nM.
Turning to `Cc1n[nH]c2ccc(-c3cnc(NCc4ccccc4Cl)c(N4CCNCC4)n3)cc12` [drawing 105], the IC50 came to 129 nM.
Take `Cc1n[nH]c2ccc(-c3cnc(N)c(N4CCN[C@@H](Cc5ccccc5)C4)n3)cc12` [drawing 106]: the IC50 came out at 55 nM.
As for `Cc1ccccc1CNc1ncc(-c2ccc3[nH]nc(C)c3c2)nc1N1CCNCC1` [drawing 108], the IC50 is 140 nM.
Consider `COc1cccc(CNc2ncc(-c3ccc4[nH]nc(C)c4c3)nc2N2CCNCC2)c1` [drawing 109], for which the IC50 was 148 nM.

Staying with this assay, now noted: active recombinant Akt1, 2 μM cold ATP, 2 hr, room temperature.
With `Cc1n[nH]c2ccc(-c3cnc(N)c(N4CCN[C@@H](Cc5ccccc5)C4)n3)cc12` [Example 1, 2-amino-3-[(S)-3-benzylpiperazinyl]-5-(3-methyl-1H-indazol-5-yl)pyrazine], the IC50 lay in the range of 0.98 to 240 nM.
Regarding `Cc1n[nH]c2ccc(-c3cncc(N4CCN[C@@H](Cc5ccccc5)C4)n3)cc12` [Example 2, 2-[(S)-3-benzylpiperazinyl]-6-[3-methyl-1H-indazol-5-yl]pyrazine], the IC50 was 0.98 to 240 nM and 0.98 to 46 nM and 0.98 nM.
With `Cc1n[nH]c2ccc(-c3cnc(NCc4ccccc4)c(N4CCN[C@@H](Cc5ccccc5)C4)n3)cc12` [Example 5], the IC50 lay within 0.98 to 240 nM.
For the compound `Cc1n[nH]c2ccc(-c3cnc(N)c(N4CCN[C@H](c5ccccc5)C4)n3)cc12` [Example 8], the IC50 is 0.98 to 240 nM.
As to `Cc1n[nH]c2ccc(-c3cnc(N)c(N4CCNCC4)n3)cc12` [Example 12], the IC50 fell in the range of 0.98 to 240 nM.
`Cc1n[nH]c2ccc(-c3cnc(NCc4ccccc4)c(N4CCNCC4)n3)cc12` [Example 18]: the IC50 was 0.98 to 240 nM and 0.98 to 46 nM.
Turning to `Cc1n[nH]c2ccc(-c3cnc(N(C)Cc4ccccc4)c(N4CCNCC4)n3)cc12` [Example 27], the IC50 is 0.98 to 240 nM.
`Cc1n[nH]c2ccc(-c3cnc(NCc4ccc(Cl)cc4)c(N4CCNCC4)n3)cc12` [Example 29]: the IC50 was 0.98 to 240 nM.
With `Cc1n[nH]c2ccc(-c3cnc(NCc4cccc(Cl)c4)c(N4CCNCC4)n3)cc12` [Example 30], the IC50 was in the range of 0.98 to 240 nM.
For the compound `Cc1n[nH]c2ccc(-c3cnc(NCc4ccccc4Cl)c(N4CCNCC4)n3)cc12` [Example 31], the IC50 was in the range of 0.98 to 240 nM.
Regarding `COc1cccc(CNc2ncc(-c3ccc4[nH]nc(C)c4c3)nc2N2CCNCC2)c1` [Example 34], the IC50 fell in the range of 0.98 to 240 nM.
As for `COc1ccccc1CNc1ncc(-c2ccc3[nH]nc(C)c3c2)nc1N1CCNCC1` [Example 35], the IC50 is 0.98 to 240 nM.
For `Cc1ccccc1CNc1ncc(-c2ccc3[nH]nc(C)c3c2)nc1N1CCNCC1` [Example 38], the IC50 was 0.98 to 240 nM.
Consider `Cc1n[nH]c2ccc(-c3cnc(NCc4ccccc4F)c(N4CCNCC4)n3)cc12` [Example 41], for which the IC50 was 0.98 to 240 nM.
In the case of `Cc1n[nH]c2ccc(-c3cnc(NCc4cccc(F)c4)c(N4CCNCC4)n3)cc12` [Example 42], the IC50 is 0.98 to 240 nM and 0.98 to 46 nM.
In the case of `Cc1n[nH]c2ccc(-c3cnc(NCc4ccc(F)cc4)c(N4CCNCC4)n3)cc12` [Example 43], the half-inhibitory concentration (IC50) is 0.98 to 240 nM.
`Cc1n[nH]c2ccc(-c3cnc(NCc4c(F)cccc4Cl)c(N4CCNCC4)n3)cc12` [Example 50]: the IC50 fell in the range of 0.98 to 240 nM.
